Measurements as given in ChEMBL document CHEMBL1142139, “In vitro-clinical correlations for amphotericin B susceptibility in AIDS-associated cryptococcal meningitis” (2007).

Test system: Cryptococcus neoformans
Assay: Antimicrobial activity against Cryptococcus neoformans isolates in CSF from meningitis patients after 14 day iv treatment
Type: functional

C[C@@H]1[C@H](O)[C@@H](C)/C=C/C=C/C=C/C=C/C=C/C=C/C=C/[C@H](O[C@@H]2O[C@H](C)[C@@H](O)[C@H](N)[C@@H]2O)C[C@@H]2O[C@](O)(C[C@@H](O)C[C@@H](O)[C@H](O)CC[C@@H](O)C[C@@H](O)CC(=O)O[C@H]1C)C[C@H](O)[C@H]2C(=O)O [AMPHOTERICIN B] was tested, and the CFU/ml was 0.
